Experimental data published in ChEMBL document CHEMBL1201862, “PubChem BioAssay data set” (2004).
Active and inactive are the calls of the source.

Experiments:
Aminopeptidase N = biological target: T1, Aminopeptidase N (Plasmodium falciparum FcB1/Columbia, UniProt O96935); experiment: malaria alanyl aminopeptidase activity blockers – biochemical, fluorogenic H-Leu-NHMec substrate, 1536-well (AID 1445); set-up: species or system Plasmodium falciparum 3D7, 3D7
T1 sequence (O96935 whole entry): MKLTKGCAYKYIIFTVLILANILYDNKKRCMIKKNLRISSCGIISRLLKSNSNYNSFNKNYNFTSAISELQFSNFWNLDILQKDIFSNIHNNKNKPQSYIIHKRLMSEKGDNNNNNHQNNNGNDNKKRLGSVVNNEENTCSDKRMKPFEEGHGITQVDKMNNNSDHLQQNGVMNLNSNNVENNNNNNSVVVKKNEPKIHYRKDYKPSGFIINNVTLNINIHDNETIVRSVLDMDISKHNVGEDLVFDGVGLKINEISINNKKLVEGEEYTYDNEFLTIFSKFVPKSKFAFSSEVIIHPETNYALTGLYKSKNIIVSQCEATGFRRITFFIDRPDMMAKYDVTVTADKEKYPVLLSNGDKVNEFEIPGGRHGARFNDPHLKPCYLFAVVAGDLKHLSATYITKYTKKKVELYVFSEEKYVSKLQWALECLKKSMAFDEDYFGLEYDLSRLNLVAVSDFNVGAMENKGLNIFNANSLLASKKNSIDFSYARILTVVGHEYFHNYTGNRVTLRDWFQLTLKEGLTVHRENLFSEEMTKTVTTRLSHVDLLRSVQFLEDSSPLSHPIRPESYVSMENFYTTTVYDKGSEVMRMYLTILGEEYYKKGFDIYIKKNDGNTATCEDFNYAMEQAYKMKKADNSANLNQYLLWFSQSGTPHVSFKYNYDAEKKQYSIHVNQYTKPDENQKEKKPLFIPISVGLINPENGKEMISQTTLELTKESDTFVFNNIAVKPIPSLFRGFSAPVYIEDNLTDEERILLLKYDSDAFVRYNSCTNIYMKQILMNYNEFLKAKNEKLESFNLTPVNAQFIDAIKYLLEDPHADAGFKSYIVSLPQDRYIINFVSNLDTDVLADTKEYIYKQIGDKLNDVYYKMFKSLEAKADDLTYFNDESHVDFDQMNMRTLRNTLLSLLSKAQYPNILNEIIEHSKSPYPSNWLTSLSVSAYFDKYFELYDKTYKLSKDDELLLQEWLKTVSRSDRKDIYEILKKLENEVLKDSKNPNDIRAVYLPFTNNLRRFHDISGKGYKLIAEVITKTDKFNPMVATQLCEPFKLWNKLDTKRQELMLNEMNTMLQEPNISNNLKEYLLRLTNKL

[1] = Trypanosoma cruzi growth suppression in host cells – NIH3T3 host cells, beta-gal luminescence, confirmation (AID 2044); type: functional, cell-based;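 further: intracellular parasites grown in NIH/3T3 mouse fibroblasts as host cells; luminescent beta-galactosidase reporter signal from transgenic T. cruzi replicating inside host cells; inhibitors lower the luminescence signal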
[2] = biological target: T2, DNA repair protein RAD52 homolog (Homo sapiens, UniProt P43351); type: functional, biochemical
T2 sequence (P43351 whole entry): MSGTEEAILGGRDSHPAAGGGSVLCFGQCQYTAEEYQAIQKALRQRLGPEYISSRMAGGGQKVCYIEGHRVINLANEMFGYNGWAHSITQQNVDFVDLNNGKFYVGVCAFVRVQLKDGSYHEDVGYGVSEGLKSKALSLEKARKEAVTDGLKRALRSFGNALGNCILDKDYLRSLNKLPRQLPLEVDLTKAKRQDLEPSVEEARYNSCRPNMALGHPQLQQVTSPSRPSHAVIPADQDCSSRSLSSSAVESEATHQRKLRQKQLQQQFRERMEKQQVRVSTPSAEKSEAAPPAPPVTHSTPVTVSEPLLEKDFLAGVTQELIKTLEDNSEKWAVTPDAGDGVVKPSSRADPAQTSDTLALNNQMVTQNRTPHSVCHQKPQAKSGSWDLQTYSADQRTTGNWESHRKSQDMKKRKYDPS

[3] = NIH3T3 cell viability loss – ATP luminescence, mouse fibroblasts, counter-screen, dose response (AID 2010); type: functional, cell-based;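 further: cells exposed to compound for about 90 hours before reading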
[4] = Counterscreen for activators of the function of SWI/SNF related, matrix associated, actin dependent regulator of chromatin, subfamily a, member 2 (SMARCA2, BRM): Luminescence-based cell-based high throughput dose response assay to identify non-selective compounds using the VP16 reporter assay.; type: functional
[5] = biological target: SWI/SNF-related matrix-associated actin-dependent regulator of chromatin subfamily A member 2 (Homo sapiens, UniProt P51531); experiment: Luminescence-based cell-based high throughput dose response assay to identify activators of the function of SWI/SNF related, matrix associated, actin dependent regulator of chromatin, subfamily a, member 2 (SMARCA2, BRM).; type: functional
Chain of SWI/SNF-related matrix-associated actin-dependent regulator of chromatin subfamily A member 2 (P51531 whole entry): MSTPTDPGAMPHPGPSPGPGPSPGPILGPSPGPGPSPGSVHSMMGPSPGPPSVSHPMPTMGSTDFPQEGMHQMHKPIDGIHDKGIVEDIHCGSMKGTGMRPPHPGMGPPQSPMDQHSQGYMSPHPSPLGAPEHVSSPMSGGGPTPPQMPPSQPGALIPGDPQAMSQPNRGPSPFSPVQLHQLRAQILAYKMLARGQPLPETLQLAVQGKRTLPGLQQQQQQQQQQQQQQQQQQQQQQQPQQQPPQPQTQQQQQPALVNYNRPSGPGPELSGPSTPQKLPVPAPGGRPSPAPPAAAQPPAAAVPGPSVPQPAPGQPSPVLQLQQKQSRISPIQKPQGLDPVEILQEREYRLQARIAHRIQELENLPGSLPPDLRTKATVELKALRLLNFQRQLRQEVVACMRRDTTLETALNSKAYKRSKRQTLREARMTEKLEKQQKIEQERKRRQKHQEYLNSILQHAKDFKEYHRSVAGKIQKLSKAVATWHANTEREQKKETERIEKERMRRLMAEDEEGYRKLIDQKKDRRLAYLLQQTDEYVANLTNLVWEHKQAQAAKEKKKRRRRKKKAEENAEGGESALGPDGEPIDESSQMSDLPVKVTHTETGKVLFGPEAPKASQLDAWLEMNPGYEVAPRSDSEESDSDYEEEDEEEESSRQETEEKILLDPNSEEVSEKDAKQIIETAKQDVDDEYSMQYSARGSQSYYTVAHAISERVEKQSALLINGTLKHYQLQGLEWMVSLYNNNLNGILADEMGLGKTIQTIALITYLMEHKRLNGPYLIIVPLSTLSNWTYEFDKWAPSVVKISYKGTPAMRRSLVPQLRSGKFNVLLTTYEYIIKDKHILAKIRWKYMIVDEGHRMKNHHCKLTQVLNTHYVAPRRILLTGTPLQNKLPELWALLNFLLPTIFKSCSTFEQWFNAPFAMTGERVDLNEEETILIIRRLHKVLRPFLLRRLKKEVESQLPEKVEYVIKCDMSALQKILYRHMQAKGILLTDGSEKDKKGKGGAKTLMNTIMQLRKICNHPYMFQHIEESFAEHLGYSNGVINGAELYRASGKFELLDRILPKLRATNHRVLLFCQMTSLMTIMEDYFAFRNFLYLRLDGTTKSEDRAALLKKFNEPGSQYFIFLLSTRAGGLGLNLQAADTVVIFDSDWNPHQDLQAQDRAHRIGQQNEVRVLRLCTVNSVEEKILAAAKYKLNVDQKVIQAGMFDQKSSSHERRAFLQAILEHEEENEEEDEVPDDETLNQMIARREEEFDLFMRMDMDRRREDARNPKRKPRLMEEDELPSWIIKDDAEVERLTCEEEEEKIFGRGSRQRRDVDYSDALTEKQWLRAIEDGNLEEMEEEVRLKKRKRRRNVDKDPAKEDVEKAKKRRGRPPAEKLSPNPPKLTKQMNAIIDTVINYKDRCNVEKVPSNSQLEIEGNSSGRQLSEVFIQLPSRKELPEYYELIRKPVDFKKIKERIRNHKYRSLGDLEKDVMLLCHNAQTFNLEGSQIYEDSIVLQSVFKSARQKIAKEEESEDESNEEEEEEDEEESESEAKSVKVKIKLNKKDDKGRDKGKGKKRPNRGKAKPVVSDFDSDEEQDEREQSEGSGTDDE

H9c2 = experiment: cells; type: functional, cell-based; conditions: Rattus norvegicus, H9c2, Myocardium;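 further: confirmatory concentration-response retest of ultra-high-throughput screening hits for modulation of myocardial damage; cell death induced by hydrogen peroxide oxidative stress; compound pretreatment for 60 min then peroxide exposure for 2 h; potency is for protecting the cells against peroxide damage rather than for killing them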
Vero = experiment: cells; type: functional; conditions: Chlorocebus sabaeus
[6] = mammalian cell viability loss – Alamar Blue, dry powder, cytotoxicity control for antifungal single agent project, dose response (AID 602188); type: functional, cell-based
[7] = NIH-3T3 fibroblast cytotoxicity, dose response, cytotoxicity control, cell-based, fluorescence, Alamar Blue, secondary assay (AID 2327); type: functional;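 further: NIH-3T3 mouse fibroblasts cultured with fluconazole at 8 µg/mL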
[8] = biological target: Voltage-dependent T-type calcium channel subunit alpha-1H (Homo sapiens, UniProt O95180); type: functional;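 further: channel activity triggered by adding a high calcium stimulation buffer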
[9] = fluconazole-exposed Candida albicans growth modulators – fluorescence, retest, confirmation (AID 2467); type: functional, cell-based
[10] = biological target: T3, Serine/threonine-protein phosphatase (Candida dubliniensis (strain CD36 / CBS 7987 / NCPF 3949 / NRRLY-17841) (Yeast), UniProt B9W6M3); experiment: blockers of CaCl2-induced CDRE-lacZ signaling – S. cerevisiae, luminescence, secondary, dose response (AID 2388); type: functional, cell-based;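 further: yeast reporter cells carrying a calcineurin-responsive lacZ construct stimulated with calcium chloride; luminescent beta-galactosidase reporter signal in whole cells rather than isolated phosphatase activity; potency for inhibition where a drop in reporter signal means calcineurin blockade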
T3 sequence (B9W6M3 whole entry): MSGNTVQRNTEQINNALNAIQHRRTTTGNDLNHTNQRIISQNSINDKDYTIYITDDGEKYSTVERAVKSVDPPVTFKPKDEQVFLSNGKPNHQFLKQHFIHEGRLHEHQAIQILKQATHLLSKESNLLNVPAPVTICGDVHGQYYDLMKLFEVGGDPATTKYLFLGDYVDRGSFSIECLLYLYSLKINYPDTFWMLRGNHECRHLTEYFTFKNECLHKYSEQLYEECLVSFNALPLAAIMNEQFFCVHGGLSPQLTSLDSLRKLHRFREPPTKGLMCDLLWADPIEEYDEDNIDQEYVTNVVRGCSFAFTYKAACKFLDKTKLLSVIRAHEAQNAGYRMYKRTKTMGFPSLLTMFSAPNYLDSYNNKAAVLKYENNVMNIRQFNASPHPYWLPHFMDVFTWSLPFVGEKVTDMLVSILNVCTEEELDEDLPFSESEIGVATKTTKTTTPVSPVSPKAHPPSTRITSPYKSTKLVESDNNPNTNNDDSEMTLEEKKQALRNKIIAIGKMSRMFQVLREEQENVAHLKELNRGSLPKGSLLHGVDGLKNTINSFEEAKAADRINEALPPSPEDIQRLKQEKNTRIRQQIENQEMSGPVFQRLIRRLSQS

[11] = biological target: ATP-dependent molecular chaperone HSP82 (Candida albicans (strain WO-1) (Yeast), UniProt C4YTQ8); experiment: steroid-induced GRE reporter decrease in yeast – S. cerevisiae, luminescence, Hsp90 inhibitor project, dose response (AID 2400); type: functional, cell-based;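 further: beta-galactosidase luminescence from glucocorticoid response element reporter as proxy for Hsp90 function; inhibitor potency where signal loss means Hsp90 inhibition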
Chain of ATP-dependent molecular chaperone HSP82 (C4YTQ8 whole entry): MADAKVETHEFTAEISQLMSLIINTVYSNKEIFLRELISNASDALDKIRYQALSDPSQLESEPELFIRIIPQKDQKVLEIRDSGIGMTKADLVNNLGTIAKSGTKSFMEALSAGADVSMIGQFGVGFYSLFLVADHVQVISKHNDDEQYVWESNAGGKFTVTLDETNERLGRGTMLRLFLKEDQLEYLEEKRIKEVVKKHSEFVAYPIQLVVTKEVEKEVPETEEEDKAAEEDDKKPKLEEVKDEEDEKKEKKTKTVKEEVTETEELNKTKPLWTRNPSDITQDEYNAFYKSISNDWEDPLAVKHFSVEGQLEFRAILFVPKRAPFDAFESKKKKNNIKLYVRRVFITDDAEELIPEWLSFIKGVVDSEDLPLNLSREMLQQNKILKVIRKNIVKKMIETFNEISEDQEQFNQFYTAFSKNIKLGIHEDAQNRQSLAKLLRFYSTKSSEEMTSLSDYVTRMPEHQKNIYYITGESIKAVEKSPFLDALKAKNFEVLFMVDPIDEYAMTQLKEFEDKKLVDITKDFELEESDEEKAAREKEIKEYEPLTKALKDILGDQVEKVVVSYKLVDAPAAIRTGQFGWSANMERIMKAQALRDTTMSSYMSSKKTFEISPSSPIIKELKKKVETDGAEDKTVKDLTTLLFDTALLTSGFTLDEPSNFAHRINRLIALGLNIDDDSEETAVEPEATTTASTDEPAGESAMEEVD

[12] = biological target: Glucose-6-phosphate 1-dehydrogenase (Homo sapiens, UniProt P11413); experiment: inhibition of Homo sapiens G6PD, dose series – biochemical, fluorescence, selectivity assay for P. falciparum G6PD inhibitor project, dose response (AID 504792); type: functional
Chain of Glucose-6-phosphate 1-dehydrogenase (P11413 whole entry): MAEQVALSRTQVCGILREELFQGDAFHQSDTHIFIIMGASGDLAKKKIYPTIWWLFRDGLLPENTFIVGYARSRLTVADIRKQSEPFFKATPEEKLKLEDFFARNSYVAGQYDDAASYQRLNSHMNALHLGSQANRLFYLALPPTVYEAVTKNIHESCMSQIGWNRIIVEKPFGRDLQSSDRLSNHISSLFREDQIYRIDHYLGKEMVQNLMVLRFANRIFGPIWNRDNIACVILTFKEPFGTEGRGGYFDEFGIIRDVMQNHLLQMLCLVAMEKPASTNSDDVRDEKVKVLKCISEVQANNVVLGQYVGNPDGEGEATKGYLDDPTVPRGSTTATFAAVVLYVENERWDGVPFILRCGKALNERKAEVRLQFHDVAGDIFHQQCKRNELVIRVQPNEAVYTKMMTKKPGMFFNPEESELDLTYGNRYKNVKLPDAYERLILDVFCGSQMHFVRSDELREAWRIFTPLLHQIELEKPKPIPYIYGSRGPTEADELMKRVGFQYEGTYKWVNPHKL

Protein Wnt-3a = Protein Wnt-3a (Mus musculus, UniProt P27467); experiment: antagonism of Wnt3a pathway luciferase reporter – Wnt-LIGHT cells, luminescence, selectivity assay for Gli-SUFU antagonist project, dose response (AID 651570); type: functional; conditions: read-out: IC50_Mean;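 further: Wnt-LIGHT reporter cells stimulated with conditioned medium from Wnt3a-producing cells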
Chain of Protein Wnt-3a (P27467 whole entry): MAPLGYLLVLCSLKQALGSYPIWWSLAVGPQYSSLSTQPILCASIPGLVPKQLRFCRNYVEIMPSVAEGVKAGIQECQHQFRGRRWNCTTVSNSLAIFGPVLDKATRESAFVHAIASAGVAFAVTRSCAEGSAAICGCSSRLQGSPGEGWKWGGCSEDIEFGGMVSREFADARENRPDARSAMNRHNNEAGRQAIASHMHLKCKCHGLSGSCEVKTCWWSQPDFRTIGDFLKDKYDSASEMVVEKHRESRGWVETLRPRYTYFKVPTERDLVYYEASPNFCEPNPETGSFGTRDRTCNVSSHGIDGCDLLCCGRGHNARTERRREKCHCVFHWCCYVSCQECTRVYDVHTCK

[13] = biological target: T4, Mitochondrial peptide methionine sulfoxide reductase (Bos taurus, UniProt P54149); type: functional;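 further: absorbance read-out, biochemical high-throughput dose-response screen for MsrA inhibitors, confirmatory; recombinant bovine MsrA coupled to E. coli TrxB with NADPH and selenocystamine; potency is for inhibitors of MsrA activity on DMSO substrate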
T4 sequence (P54149 whole entry): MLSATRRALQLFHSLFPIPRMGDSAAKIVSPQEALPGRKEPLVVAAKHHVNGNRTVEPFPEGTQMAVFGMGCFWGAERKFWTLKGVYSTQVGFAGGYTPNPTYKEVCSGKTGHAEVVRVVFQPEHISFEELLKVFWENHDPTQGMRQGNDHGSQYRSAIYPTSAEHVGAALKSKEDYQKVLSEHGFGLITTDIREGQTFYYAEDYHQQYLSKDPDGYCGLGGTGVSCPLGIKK

[14] = biological target: T5, COUP transcription factor 2 (Homo sapiens, UniProt P24468); experiment: Luminescence-based cell-based high throughput dose response assay to identify inhibitors of COUP-TFII (NR2F2).; type: functional;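 further: HEK293 cells transiently cotransfected with COUP-TFII expression vector and reporter; luciferase reporter luminescence driven by COUP-TFII from the pX2-168 reporter plasmid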
T5 sequence (P24468 whole entry): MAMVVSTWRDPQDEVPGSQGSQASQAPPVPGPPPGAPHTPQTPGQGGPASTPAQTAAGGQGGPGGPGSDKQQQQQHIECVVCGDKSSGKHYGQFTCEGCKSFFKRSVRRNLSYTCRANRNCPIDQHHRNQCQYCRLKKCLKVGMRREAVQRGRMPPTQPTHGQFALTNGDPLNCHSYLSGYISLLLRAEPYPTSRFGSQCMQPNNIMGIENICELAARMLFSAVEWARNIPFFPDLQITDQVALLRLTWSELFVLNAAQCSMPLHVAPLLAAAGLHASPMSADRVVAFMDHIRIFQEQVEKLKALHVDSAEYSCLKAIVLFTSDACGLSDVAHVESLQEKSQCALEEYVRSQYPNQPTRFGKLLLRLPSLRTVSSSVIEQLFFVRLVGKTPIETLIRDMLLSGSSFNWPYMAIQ

[15] = activation of miR-122 Renilla sensor silencing – cell-based, Huh7 psiCHECK-miR122, Renilla luciferase, cherry-picked, dose response (AID 651956); type: functional;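 further: huh7 hepatoma cells stably carrying a psiCHECK-2 miR-122 sensor plasmid; renilla luciferase signal reporting endogenous miR-122 activity after 48 h compound exposure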
[16] = biological target: T6, Small ubiquitin-related modifier 1 (Homo sapiens, UniProt P63165); experiment: SUMO1 protein-protein binding blockers, potency – biochemical, FRET, dose response (AID 624383); type: functional; conditions: read-out: IC50_Mean
T6 sequence (P63165 whole entry): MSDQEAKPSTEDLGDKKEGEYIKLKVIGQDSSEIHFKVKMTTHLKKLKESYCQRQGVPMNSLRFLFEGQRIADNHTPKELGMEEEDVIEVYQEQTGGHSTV

[17] = biological target: T6, Small ubiquitin-related modifier 1; experiment: SUMO1 protein interaction blockers, potency – biochemical, fluorescence polarization, uHTS hits, dose response (AID 624382); type: functional; conditions: read-out: IC50_Mean
[18] = biological target: T7, Long-chain-fatty-acid--AMP ligase FadD28 (Mycobacterium tuberculosis, UniProt P9WQ59); experiment: Fluorescence polarization aasay to screen for inhibitors that compete for the binding of FadD28 to a bisubstrate Measured in Biochemical System Using Plate Reader - 2147-01_Inhibitor_Dose_CherryPick_Activity.; type: functional, Mycobacterium tuberculosis H37Rv
T7 sequence (P9WQ59 whole entry): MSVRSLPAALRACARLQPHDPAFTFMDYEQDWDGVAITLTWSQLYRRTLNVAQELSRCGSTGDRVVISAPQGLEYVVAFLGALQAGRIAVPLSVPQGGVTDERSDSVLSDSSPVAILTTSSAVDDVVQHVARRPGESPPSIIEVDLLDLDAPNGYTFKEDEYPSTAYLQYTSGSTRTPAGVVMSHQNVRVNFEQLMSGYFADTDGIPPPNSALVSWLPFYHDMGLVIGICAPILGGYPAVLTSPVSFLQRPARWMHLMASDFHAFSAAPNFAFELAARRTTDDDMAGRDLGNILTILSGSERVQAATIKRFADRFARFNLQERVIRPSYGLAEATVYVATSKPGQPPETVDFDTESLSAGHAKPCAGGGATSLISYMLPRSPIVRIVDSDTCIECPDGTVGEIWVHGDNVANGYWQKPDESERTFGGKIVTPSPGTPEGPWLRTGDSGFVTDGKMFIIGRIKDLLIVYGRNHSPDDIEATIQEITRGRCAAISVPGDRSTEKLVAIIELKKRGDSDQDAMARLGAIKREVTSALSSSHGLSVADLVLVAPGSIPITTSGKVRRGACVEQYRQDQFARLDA

Cc1nc(NC(=N)N)nc2c(C)cccc12
IC50 (Aminopeptidase N): 47.6 µM (active) | EC50 [1]: 0.371 µM (active) | AC50 [2]: 1.4 µM (active) | EC50 [3]: > 60 µM (not active) | EC50 [4]: > 91.1 µM (inactive) | EC50 [5]: > 10.1 µM (inactive)

O=C(Nc1nnc(-c2ccc3c(c2)CCCC3)o1)c1ccccc1
IC50 (H9c2): > 79 µM (inactive) | CC50 (Vero): > 25 µM (active) | AC50 [6]: 4.89 µM (active) | EC50 [7]: > 160 µM (inactive) | EC50 [8]: 3.25 µM (active) | EC50 [9]: 0.229 µM (active) | EC50 [10]: > 180 µM (inactive) | EC50 [11]: 4.72 µM (active)

Cc1cc(C)nc(NC(N)=Nc2ccccc2-c2ccccc2)n1
IC50 [12]: > 80 µM (inactive) | IC50 (Protein Wnt-3a): 16.9 µM (active)

C/C(=N\Nc1ccc(C#N)cc1[N+](=O)[O-])c1ccc(O)cc1
IC50 [13]: 155 µM (inactive)

CC(=O)c1cn(CCOc2ccccc2C)c2ccccc12
IC50 (Protein Wnt-3a): 3.66 µM (active) | IC50 [14]: 8.92 µM (active)

Nc1nc2ccccc2n1/N=C/c1ccc2c(c1)OCO2
IC50 [13]: 45.6 µM (inactive)

CCC(C(=O)NCCC(C)C)n1ccc2cc(S(=O)(=O)N3CCCCC3)ccc21 (stereo not drawn)
IC50 (Protein Wnt-3a): 5.14 µM (active)

Cc1cc(C)nc(NS(=O)(=O)c2ccc(NC(=S)NC(=O)C3CCCC3)cc2)n1
AC50 [15]: 11.1 µM (active)

Cc1ccnc(Nc2nc3ccccc3s2)n1
EC50 [4]: > 91.2 µM (inactive) | EC50 [5]: > 91.2 µM (inactive)

Cn1cnnc1SCC(=O)Nc1ccc(OCc2ccccc2)cc1
IC50 [16]: 32 µM (inactive) | IC50 [17]: > 66.6 µM (inactive)

CCc1cccc2c(C(=O)COC(=O)c3cccc(S(=O)(=O)N(C)C4CCCCC4)c3)c[nH]c12
AC50 [18]: 30.6 µM (active)

O=C(CCC(=O)Nc1ccc(F)cc1)N/N=C/c1c[nH]c2ccccc12
AC50 [18]: 49 µM (active)
